The results in this text go back to article PMC3049928 (Archives of biochemistry and biophysics, 2010).

The target of the assay is SULT1A1 (human phenol sulfotransferase, human sulfotransferase 1A1) (Homo sapiens, UniProt P50225). Put plainly: pNPS assay of PAP sulfation, p-nitrophenol absorbance at […] nm. Type of assay: biochemical.

Molecules are shown by their SMILES.

SULT1A1 (human phenol sulfotransferase, human sulfotransferase 1A1), sequence (P50225 whole entry): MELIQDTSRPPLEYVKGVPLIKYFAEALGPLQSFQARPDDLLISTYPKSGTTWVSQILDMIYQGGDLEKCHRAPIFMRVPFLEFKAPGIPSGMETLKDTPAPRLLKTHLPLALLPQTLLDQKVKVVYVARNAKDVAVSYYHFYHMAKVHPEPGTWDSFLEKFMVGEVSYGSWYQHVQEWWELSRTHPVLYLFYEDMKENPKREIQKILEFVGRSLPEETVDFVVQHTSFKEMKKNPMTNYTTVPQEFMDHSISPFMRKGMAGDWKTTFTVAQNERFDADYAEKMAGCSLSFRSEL

Take `Oc1ccc2ccccc2c1` [2-naphthol]: the inhibition constant (Ki) (usually the equilibrium dissociation constant of an inhibitor or competing ligand from its target) amounted to 2600 ± 200 nM.
